IC50 data for 1 molecule are collected here from PubChem BioAssay AID1745860.

Each structure is given as a SMILES string.

This experiment has as its target Sodium-dependent noradrenaline transporter (Homo sapiens) (UniProt P23975). The experiment in a line: NET transport inhibition via TRACT readout – HEK293 JumpIn overexpressing cells, impedance, dose response (AID 1745860). The conditions noted are these: HEK293 JumpIn SLC6A2 OE.

Sodium-dependent noradrenaline transporter (Homo sapiens), sequence (P23975 whole entry, looked up): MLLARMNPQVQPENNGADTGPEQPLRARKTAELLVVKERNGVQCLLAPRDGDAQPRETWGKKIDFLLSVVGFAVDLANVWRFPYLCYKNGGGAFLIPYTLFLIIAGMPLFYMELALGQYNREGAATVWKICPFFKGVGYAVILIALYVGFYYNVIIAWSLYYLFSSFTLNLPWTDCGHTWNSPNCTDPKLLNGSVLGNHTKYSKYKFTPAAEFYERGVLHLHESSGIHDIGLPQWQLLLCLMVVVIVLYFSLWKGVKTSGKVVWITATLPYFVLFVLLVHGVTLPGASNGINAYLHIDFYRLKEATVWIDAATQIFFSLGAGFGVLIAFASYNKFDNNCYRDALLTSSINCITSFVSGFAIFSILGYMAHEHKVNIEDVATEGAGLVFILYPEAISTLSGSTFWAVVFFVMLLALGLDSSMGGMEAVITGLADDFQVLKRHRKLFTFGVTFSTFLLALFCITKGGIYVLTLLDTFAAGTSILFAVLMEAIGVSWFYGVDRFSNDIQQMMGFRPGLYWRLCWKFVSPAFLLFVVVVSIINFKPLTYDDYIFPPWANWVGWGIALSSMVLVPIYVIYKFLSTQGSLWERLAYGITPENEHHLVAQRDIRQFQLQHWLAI

Usually IC50 stands for the point on the concentration scale where inhibition reaches its midpoint. As to `CNC[C@H](O)c1ccc(O)c(O)c1`, the concentration for half-maximal inhibition (IC50) was 4 µM.
